# B1: 100nX-Dimer: a dimerized peptide of 100nX (SEQ ID NO: 9) (peptide)
# chain 1: CAAELAALEAELAALEGVPGDNNGTRGKLYHLKNKLHRLKNAC
# chain 2: B1 chain 1
# modifications: dimerized
# Columns and labels:
# [1] = test system: FGFR3; experiment: Phage display selection against FGFR3 with Miseq analysis of the bound phages; assay type: binding; settings: for 1 nM Num. of reads: phage library after panning Round 4, bound to 1 nM FGFR3; for 10 nM Num. of reads: phage library after panning Round 4, bound to 10 nM FGFR3; for 100 nM Num. of reads: phage library after panning Round 4, bound to 100 nM FGFR3; for 1 nM Ranking / 10 nM Ranking / 100 nM Ranking: rank by number of reads; for 1 nM Ranking: 1 nM FGFR3; for 10 nM Ranking: 10 nM FGFR3; for 100 nM Ranking: 100 nM FGFR3
# Method: The collected phage library was mixed with 100 nM of FGFR3 solution and allowed to react overnight at 4° C. (Table 9: Panning Round 1). After the reaction, the binding phages were captured by magnetic beads modified with protein A, and washed three times with PBS-T, followed by eluting the bound phages with Gly-HCl (pH 2.0). After neutralizing with 2M Tris, the pages were infected to E. coli (TG1 strain). After 4 hours of incubation, helper phages were added, and the E. coli (TG1 strain) were allowed to produce phages overnight. Next, phage solution was prepared from the culture supernatant. The prepared phage solution was mixed with FGFR3 solution and allowed to react overnight at 4° C. (Table 9: Panning Round 2). After the reaction, the bound phages were eluted. Phage solution prepared in the same way was mixed with FGFR3 solution and allowed to react at 4° C. for 1 hour (Table 9: Panning Round 3). After the reaction, the bound phages were eluted. This operation was further repeated, and after Panning Round 4, the bound phages were eluted. Note that as the rounds proceeded, the number of washes with PBS-T was increased. (Table 9). The titer of the Output phage in each round was also determined. The titer of phage was determined from the number of colonies obtained by incubating the E. coli TG1 strain contacted with the phage at 37° C. overnight. The phage library eluted after panning of Example 7 (Table 9: Input phage (Round 4)) was subjected to Human IgG Fc-immobilized plate, and negative selection was performed by collecting unbound phages. The phage library was then acted to FGFR3 prepared to concentrations of 100 nM, 10 nM, and 1 nM. Bound phages were then collected. The genomic DNA of the collected phages was extracted, samples were prepared according to Illumina's protocol for Miseq, and a comprehensive analysis of the phage genomic DNA was performed. Among the sequences obtained, 20 sequences high incidence rates were selected (Table 11). The yeast cells acquired in the screening of Example 8 were seeded onto SDCAA agar plates and cultured. Fourteen single colonies formed on the agar plates were randomly selected, and for each clone, the peptide DNA sequence incorporated into the yeast expression plasmid was analyzed using the Sanger method (Table 12).
# [2] = test system: FGFR2; experiment: Yeast display screening (MACS/FACS) against FGFR2 with Sanger sequencing of single colonies; assay type: binding; settings: frequency of the clone among randomly selected single colonies after FGFR2 screening
# Method: Cells were then charged to an LS column attached to a magnetic stand. In order to remove yeast cells not bound to FGFR2, 7 mL of PBSM was flowed through the LS column twice. The LS column was then removed from the magnetic stand and FGFR2-binding yeast clones were collected by flowing SDCAA medium and cultured. The above operations were deemed as one round, and a total of three rounds were performed (Table 10). Next, yeast clones with high binding activity were screened from the yeast collected by MACS, using FACS (Fluorescence-activated cell sorting). FGFR2-Fc and mouse anti-FLAG antibodies were bound to the yeast library, followed by binding of anti-mouse IgG-Alexa488 and anti-human Fc antibody-Alexa647. […] The binding of the peptide to FGFR2 can also be detected by the fluorescence intensity of Alexa647. With that, yeast clones with high fluorescence intensities of Alexa488 and Alexa647 were collected by FACS cell sorter (BD FACS AriaIII).
# The phage library eluted after panning of Example 7 (Table 9: Input phage (Round 4)) was subjected to Human IgG Fc-immobilized plate, and negative selection was performed by collecting unbound phages. The phage library was then acted to FGFR3 prepared to concentrations of 100 nM, 10 nM, and 1 nM. Bound phages were then collected. The genomic DNA of the collected phages was extracted, samples were prepared according to Illumina's protocol for Miseq, and a comprehensive analysis of the phage genomic DNA was performed. Among the sequences obtained, 20 sequences high incidence rates were selected (Table 11). The yeast cells acquired in the screening of Example 8 were seeded onto SDCAA agar plates and cultured. Fourteen single colonies formed on the agar plates were randomly selected, and for each clone, the peptide DNA sequence incorporated into the yeast expression plasmid was analyzed using the Sanger method (Table 12).
# [3] = test system: iPS-hFB; experiment: Differentiation induction of iPS cells into cardiomyocytes: RT-qPCR of cardiomyocyte markers cTNT and Actinin; settings: Day 23
# [4] = test system: iPS-hFB; experiment: Differentiation induction of iPS cells into cardiomyocytes: observation of beating cell clusters; settings: Example 3: 0.05 μM peptide + Activin A on Day 1, no bFGF
# [5] = Example 3, protocol 5, 0.05 μM, compared to protocols 1, 3, 4 or 6
Molecule,1 nM Num. of reads [1],10 nM Num. of reads [1],100 nM Num. of reads [1],1 nM Ranking [1],10 nM Ranking [1],100 nM Ranking [1],Frequency [2],other results
CAAELAALEAELAALEGEVNMTRARAGKLLVLKVKLHGLKQAC [F3-100n504],1062,741,1006,18,21,21,–,–
CAAELAALEAELAALEGGAFLTVGRAGKLMMLKQKLVRLKCAC [F3-100n117],1355,948,1188,9,9,12,–,–
CAAELAALEAELAALEGGAPVTIMGVGKLMVLKEKLRNLKDAC [F3-100n16],1095,647,775,16,26,33,–,–
CAAELAALEAELAALEGGGGGGG----FLRNLHIKLYLLQFAC [FGFR_Y07],–,–,–,–,–,–,1,–
CAAELAALEAELAALEGGGGGGG----KLMDLHYQLYNLFIAC [FGFR_Y01],–,–,–,–,–,–,1,–
CAAELAALEAELAALEGGRDRTLELSGKLLVLKSKLHWLKHAC [F3-100n251],3203,2387,3153,2,1,2,–,–
CAAELAALEAELAALEGGRTPVVTTMGKLMGLKLKLQQLKRAC [F3-100n322],1234,813,1061,12,16,18,–,–
CAAELAALEAELAALEGKDFRTIELVGKLVLLKYKLNNLKEAC [F3-100n548],1248,873,1088,11,13,17,–,–
CAAELAALEAELAALEGKEHPTLRTSGKLLHLKLKLHELKRAC [F3-100n131],2801,2079,2648,3,4,3,–,–
CAAELAALEAELAALEGLDYHTVLSTGKLMVLKRKLNILKLAC [F3-100n250],966,856,1096,20,14,16,–,–
CAAELAALEAELAALEGLHTLTLMQTGKLLVLKMKLRELKWAC [F3-100n192],1100,707,857,15,23,28,–,–
CAAELAALEAELAALEGPPRPHLPPLGKLFLLKFKLYLLKGAC [FGFR_Y09],–,–,–,–,–,–,1,–
CAAELAALEAELAALEGPSRVGSRRRGKLNLLKYKLHGLKLAC [FGFR_Y13],–,–,–,–,–,–,1,–
CAAELAALEAELAALEGQKHFTLGGLGKLIVLKKQLRILKCAC [F3-100n174],1668,1223,1811,8,7,6,–,–
CAAELAALEAELAALEGRPVRTVLTNGKLMVLKSKLQELKHAC [F3-100n182],1723,1143,1423,7,8,8,–,–
CAAELAALEAELAALEGRTFTIGEVKGKLQGLIMKLHHLKDAC [F3-100n116],1895,2291,3236,6,2,1,–,–

Molecule,1 nM Num. of reads [1],10 nM Num. of reads [1],100 nM Num. of reads [1],1 nM Ranking [1],10 nM Ranking [1],100 nM Ranking [1],Frequency [2],other results
CAAELAALEAELAALEGSTARTLMQVGKLEMLKYKLLELKCAC [F3-100n3],1084,613,850,17,29,29,–,–
CAAELAALEAELAALEGVKELTLGTVGKLMSLKYKLWSLKQAC [F3-100n410],2547,1717,2279,4,5,5,–,–
CAAELAALEAELAALEGVRPETMSQVGKLLVLKHRLGQLKRAC [F3-100n9],3326,2152,2566,1,3,4,–,–
CAAELAALEAELAALEVGRVKTLGRYGKLMVLKHQLRNLKCAC [F3-100n161],1045,903,1261,19,10,9,–,–
CAHHLASLEYDLAILEGGDGGGG----HLARLKRQLAELKNAC [FGFR_Y16],–,–,–,–,–,–,1,–
CAKELLALKRELKALQGGGGGGG----KLRALQLKLYALLLAC [FGFR_Y11],–,–,–,–,–,–,2,–
CALELLALRGELEALRGGGGGGG----KLGALHLKLFALQWAC [FGFR_Y08],–,–,–,–,–,–,1,–
CAQELRALLRELQALGGGGGGGG----KLGALVFKLYALMLAC [FGFR_Y15],–,–,–,–,–,–,1,–
CAQELVALHMELRALGGGGGGGG----KLQALYLKLFALDHAC [FGFR_Y04],–,–,–,–,–,–,1,–
CARELQALGKELKALKGGGGGGG----KLRALQLKLYALQVAC [FGFR_Y10],–,–,–,–,–,–,1,–
CARELQALLKELQALGGGGGGGG----KLLALFVKLYALRLAC [FGFR_Y02],–,–,–,–,–,–,1,–
CARELRALRRELRALQGGGGGGG----KLHALHRKLFALMVAC [FGFR_Y06],–,–,–,–,–,–,1,–
CAVELYALHRELYALYGGGGGGS----KLYALYLKLLALQLAC [FGFR_Y05],–,–,–,–,–,–,1,–
CPRELEALRRELGALMGGGGGGG----KLNALMLKLYALHNAC [FGFR_Y14],–,–,–,–,–,–,1,–
B1,–,–,–,–,–,–,–,"ACTN2 expression level [3, 5]: significantly increased; cTNT expression level [3, 5]: significantly increased; gene expression levels (cTNT, ACTN2) ([3]; Example 4: peptide in combination with bFGF, compared to conventional protocol 1): significantly increased; day on which beating cell clusters were observed [4]: 11 days"

# Source: US20230139883A1, “Peptides for Inducing Differentiation” (Shimadzu Corporation, priority 2020, published 2023)
